Test results as given in paper PMC5635026, “Homo-PROTACs: bivalent small-molecule dimerizers of the VHL E3 ubiquitin ligase to induce self-degradation” (Nature Communications, 2017).

Columns and labels:
[1] = test system: Hypoxia response element (HRE)-luciferase reporter U2OS-HRE cells; experiment: HRE-luciferase reporter assay in U2OS-HRE cells; assay type: cell-based, Human; conditions: different concentrations and times
Description: Luciferase assay. Assay was performed as described. Briefly, cells (HeLa and U2OS) stably expressing an HRE-luciferase reporter were treated for the indicated times with compounds. Cells were harvested in passive lysis buffer (Promega) and subjected to three freeze-thaw cycles. The soluble lysate fraction was used for assays, performed according to the manufacturer’s instructions (Promega) using a Berthold Lumat LB 9507 Luminometer. Results were normalized for protein concentration, and reported as mean ± s.e.m. from three biological replicates.

pVHL30 = pVHL30 (Homo sapiens, UniProt P40337); experiment: Co-treatment / competition experiments on CM11-induced pVHL30 degradation in HeLa cells; assay type: cell-based; set-up: endogenous in cells; host or cells: HeLa; conditions: CM11 1 µM 4 h
Description: ML4924 and MG132 co-treatment. Cells were transferred in six-well plates with 5 × 10^5 cells per well in 2 ml media in order to achieve 80% confluence the day after. At t = 0, MLN4924 was added into the desired wells at 3 μM final concentration and 0.1% v/v of DMSO. DMSO (0.1% v/v final conc.) was added to the remaining wells in order to match identical conc. of vehicle in all wells. At t = 3 h, MG 132 was added into the desired wells at 50 μM final conc. and 0.1% v/v of DMSO. DMSO (0.1% v/v final conc.) was added to the remaining wells in order to achieve the same conc. of vehicle in all the wells. […] DMSO (0.1% v/v final conc.) was added to the remaining wells to obtain the same conc. of vehicle in all the wells. The total final concentration of DMSO was therefore 0.3% v/v. Plates were incubated for 4 h at 37 °C and 5% CO2 before harvesting. […] Plates were incubated for the desired time at 37 °C and 5% CO2 before harvesting.
Immunoblotting. Cells were lysed in lysis buffer (20 mM Tris pH 8, 150 mM NaCl, 1% Triton × 100) and a protease inhibitor cocktail (Roche) per 10 ml buffer. For protein extracts, the dishes were placed on ice. The media was aspirated and the tissue layer washed twice with ice-cold phosphate buffer saline (PBS). Lysis buffer (120 μl) was added and the cells detached from the surface with a cell scraper. After removal of the insoluble fraction by centrifugation, the protein concentration of the supernatant was determined by Pierce™ Coomassie (Bradford) Protein Assay Kit. Protein extracts were fractionated by SDS-PAGE on 4–12% Tris-Acetate NuPage® Novex® (Life Technologies) polyacrylamide gels and transferred to a nitrocellulose membrane using wet transfer. The membrane was then blocked with 5 % w/v Bovine serum albumin (BSA) in Tris-buffered saline (TBS) with 0.1% w/v Tween-20. For detecting proteins the following primary antibodies in the given concentrations were used: anti-β-Actin (Cell Signaling Technology, 4970S, 13E5) 1:2000, anti-VHL (Cell Signaling Technology, #68547) 1:1000, anti-Hif-1α (BD Biosciences, 610959, clone 54) 1:1,000, anti-hydroxy-HIF-1α (Hyp564) (Cell Signaling Techonology; #3434) 1:1,000, anti-PHD2 (Bethyl Laboratories; A300-322A) 1:1,000, anti-PHD3 (Bethyl Laboratories; A300-327A) 1:1000, anti-CRBN (Proteintech; 11435-1-AP) 1:1,000. Following incubation with a horseradish peroxidase-conjugated secondary antibody (Cell Signaling Technology), the signal was developed using enhanced chemiluminescence (ECL) Western Blotting Detection Kit (Amersham) on Amersham Hyperfilm ECL film (Amersham). Band quantification was performed using ImageJ software and reported as relative amount as ratio of the each protein band relative to the lane’s loading control. The values obtained were then normalized to 0.1% DMSO vehicle control. […]

V30CB = target: T1, V30CB (Homo sapiens, UniProt P40337); experiment: Size-exclusion chromatography (SEC) of complex formation with V30CB; assay type: binding
T1 construct: N-terminally His6-tagged VHL (1–213), ElonginC (17–112) and ElonginB (1–104) were co-expressed; His6 (N, cleaved yes); made in house; host or cells: Escherichia coli BL21(DE3)
Description: Protein expression and purification. Human proteins VHL (UniProt accession number: P40337), ElonginC (Q15369), and ElonginB (Q15370) were used for all protein expression. The short-isoform-containing VCB complex (V19CB) was expressed, purified and stored as described previously. For expression of the long-isoform-containing VCB complex (V30CB), N-terminally His6-tagged VHL (1–213), ElonginC (17–112) and ElonginB (1–104) were co-expressed in Escherichia coli BL21(DE3) at 20 °C for 18 h using 0.5 mM isopropyl β-D-1-thiogalactopyranoside (IPTG). E. coli cells were resuspended in binding buffer (50 mM HEPES, pH 8.0, 500 mM NaCl, 10 mM imidazole and 5 mM β-mercaptoethanol), lysed using a pressure cell homogenizer (Stansted Fluid Power), and lysate clarified by centrifugation. The supernatant was loaded onto a HisTrap FF affinity column (GE Healthcare) equilibrated with binding buffer, and bound protein was eluted using an imidazole gradient. […]
Size-exclusion chromatography (SEC). […] The oligomeric state of the VCB complex in solution was analyzed by gel filtration in a buffer containing 20 mM Bis-Tris (pH 7), 150 mM NaCl and 1 mM 1,4-dithiothreitol (DTT) using a Superdex 200 Increase 10/300 GL column (GE Healthcare) calibrated with globular proteins of known molecular weight (GE Healthcare, 28-4038-41/42). […] Peak elution was monitored using ultraviolet absorbance at 280 nm.

Chain of pVHL30 (P40337 whole entry): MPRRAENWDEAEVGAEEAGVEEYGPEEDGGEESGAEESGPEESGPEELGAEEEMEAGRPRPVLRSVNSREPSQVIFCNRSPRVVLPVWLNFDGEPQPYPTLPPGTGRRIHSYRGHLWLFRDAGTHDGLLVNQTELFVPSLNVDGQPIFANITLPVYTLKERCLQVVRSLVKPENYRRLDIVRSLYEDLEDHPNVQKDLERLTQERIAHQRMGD
T1 sequence (P40337 whole entry): as above
T1 sequence (Q15369 17-112 partner limits assumed): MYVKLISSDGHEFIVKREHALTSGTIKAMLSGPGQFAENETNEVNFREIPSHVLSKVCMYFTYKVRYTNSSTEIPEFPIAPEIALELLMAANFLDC
T1 sequence (Q15370 1-104 partner limits assumed): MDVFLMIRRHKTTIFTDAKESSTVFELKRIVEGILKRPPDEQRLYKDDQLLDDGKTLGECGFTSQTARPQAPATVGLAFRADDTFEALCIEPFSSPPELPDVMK

## Cc1ncsc1-c1ccc(CNC(=O)[C@@H]2C[C@@H](O)CN2C(=O)[C@@H](NC(=O)COCCOCCOCCOCCOCCOCC(=O)N[C@H](C(=O)N2C[C@H](O)C[C@H]2C(=O)NCc2ccc(-c3scnc3C)cc2)C(C)(C)C)C(C)(C)C)cc1 [CM11, N ^1 ,N ^20-bis((S)-1-((2S,4R)-4-hydroxy-2-((4-(4-methylthiazol-5-yl)benzyl)carbamoyl)pyrrolidin-1-yl)-3,3-dimethyl-1-oxobutan-2-yl)-3,6,9,12,15,18-hexaoxaicosanediamide]
[1]
  luciferase activity relative to DMSO control: no increase
pVHL30; IOX4 50 µM
  CM11 activity after pre-treatment with IOX4: did not impact CM11 activity
pVHL30; MG132 50 µM
  CM11-induced degradation of pVHL30 after pre-treatment with MG132: completely abrogated
pVHL30; MLN4924 3 µM
  CM11-induced degradation after pre-treatment with MLN4924: prevented
pVHL30; VH032 150 µM for 30 min
  CM11-induced pVHL degradation after pre-treatment with VH032: blocked pVHL degradation
V30CB
  complex formation in SEC with V30CB: Formation of a 2:1 complex
